According to the supplement of paper PMC9938120:

Key:
Test in all cases: drug sensitivity score (DSS3, normalised partial AUC of % inhibition dose-response) (DSS (score)); higher = more sensitive (stronger inhibition of viability); extreme values may be limits of the assay
FMOC02_1 = patient-derived low-grade serous ovarian cancer cells; conditions: 72 h; library: FO5A; assay format: 2D, 384-well, CellTiter-Glo
How it was run: (§1)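 Patient-derived ovarian cancer cells (early passage, under 10) were dispensed onto 384-well flat clear-bottom plates pre-plated with compounds at five concentrations covering a 10,000-fold range. Plates were incubated 72 h at 37 °C, 5% CO2, and viability was read with CellTiter-Glo. Data were processed in Breeze. The drug sensitivity score (DSS3) is a partial area under the percent-inhibition dose-response curve, divided by the log of the upper asymptote; higher means more sensitive.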

FMOC02_2 = patient-derived low-grade serous ovarian cancer cells; conditions: 72 h; library: FO5A; assay format: 2D, 384-well, CellTiter-Glo
How it was run: as §1

FMOC02_3 = patient-derived low-grade serous ovarian cancer cells; conditions: 72 h; library: FO5A; assay format: 2D, 384-well, CellTiter-Glo
How it was run: as §1

FMOC03 = patient-derived mucinous ovarian cancer cells; conditions: 72 h; library: FO5A; assay format: 2D, 384-well, CellTiter-Glo
How it was run: as §1

FMOC04 = patient-derived high-grade serous ovarian cancer cells; conditions: 72 h; library: FO5A; assay format: 2D, 384-well, CellTiter-Glo
How it was run: as §1

FMOC06 = patient-derived mucinous ovarian cancer cells; conditions: 72 h; library: FO5A; assay format: 2D, 384-well, CellTiter-Glo
How it was run: as §1

FMOC09 = patient-derived high-grade serous ovarian cancer cells; conditions: 72 h; library: FO5A; assay format: 2D, 384-well, CellTiter-Glo
How it was run: as §1

FMOC11 = patient-derived high-grade serous ovarian cancer cells; conditions: 72 h; library: FO5A; assay format: 2D, 384-well, CellTiter-Glo
How it was run: as §1

FMOC14 = patient-derived high-grade serous ovarian cancer cells; conditions: 72 h; library: FO5A; assay format: 2D, 384-well, CellTiter-Glo
How it was run: as §1

FMOC17 = patient-derived low-grade serous ovarian cancer cells; conditions: 72 h; library: FO5A; assay format: 2D, 384-well, CellTiter-Glo
How it was run: as §1

FMOC22 = patient-derived mucinous ovarian cancer cells; conditions: 72 h; library: FO5A; assay format: 2D, 384-well, CellTiter-Glo
How it was run: as §1

FMOC24 = patient-derived high-grade serous ovarian cancer cells; conditions: 72 h; library: FO5A; assay format: 2D, 384-well, CellTiter-Glo
How it was run: as §1

FMOC25_1 = patient-derived low-grade serous ovarian cancer cells; conditions: 72 h; library: FO4B; assay format: 2D, 384-well, CellTiter-Glo
How it was run: as §1

FMOC25_2 = patient-derived low-grade serous ovarian cancer cells; conditions: 72 h; library: FO5A; assay format: 2D, 384-well, CellTiter-Glo
How it was run: as §1

FMOC27 = patient-derived low-grade serous ovarian cancer cells; conditions: 72 h; library: FO5A; assay format: 2D, 384-well, CellTiter-Glo
How it was run: as §1

FMOC28 = patient-derived low-grade serous ovarian cancer cells; conditions: 72 h; library: FO5A; assay format: 2D, 384-well, CellTiter-Glo
How it was run: as §1

Compound | drug sensitivity score (FMOC02_1) | drug sensitivity score (FMOC02_2) | drug sensitivity score (FMOC02_3) | drug sensitivity score (FMOC03) | drug sensitivity score (FMOC04) | drug sensitivity score (FMOC06) | drug sensitivity score (FMOC09) | drug sensitivity score (FMOC11) | drug sensitivity score (FMOC14) | drug sensitivity score (FMOC17) | drug sensitivity score (FMOC22) | drug sensitivity score (FMOC24) | drug sensitivity score (FMOC25_1) | drug sensitivity score (FMOC25_2) | drug sensitivity score (FMOC27) | drug sensitivity score (FMOC28)
Oc1ccc2c(c1)CC[C@H](c1ccccc1)[C@@H]2c1ccc(OCCN2CCCC2)cc1 [Lasofoxifene] | 0 | 0 | 0 | 0 | 0 | 0 | 0 | 0 | 1.1 | 0 | 0 | 0 | 0 | 0 | 0 | 0
c1cn2cc(-c3ccc4cn[nH]c4c3)nc(Nc3ccc(N4CCOCC4)cc3)c2n1 [Entospletinib] | 4.3 | 3.2 | 0 | 0 | 0 | 0 | 0 | 0.7 | 0 | 1.8 | 0 | 0 | 0.1 | 0 | 0 | 0
CC(C)(C)c1cc(NC(=O)Nc2ccc(-c3cn4c(n3)sc3cc(OCCN5CCOCC5)ccc34)cc2)no1 [Quizartinib] | 2 | 0.7 | 0.6 | 0.8 | 0.45 | 0.3 | 0 | 0 | 0 | 1 | 0 | 3.85 | 0.7 | 0.6 | 0.5 | 0.3
CCS(=O)(=O)N1CC(CC#N)(n2cc(-c3ncnc4[nH]ccc34)cn2)C1 [Baricitinib] | 0 | 0 | 0 | 0 | 0 | 0 | 0 | 0 | 0 | 0 | 0 | 0.05 | 0 | 0 | 0 | 0
CS(=O)(=O)c1ccc(-c2cnc(N)c(C(=O)Nc3ccccc3)n2)cc1 [VE-821] | 3.3 | 0.8 | 0.2 | 0 | 0 | 0 | 0 | 0 | 1.9 | 0 | 0 | 3.65 | 0.6 | 2.2 | 1.3 | 0
Clc1ccc(Nc2nnc(Cc3ccncc3)c3ccccc23)cc1 [Vatalanib] | 0.2 | 0.9 | 0 | 0.2 | 0 | 0 | 0 | 0 | 0 | 0 | 0 | 2.8 | 0 | 0.7 | 0 | 3
O=C1NC(=O)[C@@H](c2cn3c4c(cccc24)CCC3)[C@@H]1c1c[nH]c2ccccc12 [Tivantinib] | 4.7 | 3.7 | 5 | 3.1 | 5.1 | 2.7 | 4.3 | 2.8 | 0 | 4.9 | 2.5 | 0.65 | 4.2 | 2.1 | 2.5 | 3.3
Oc1ncnc2[nH]ncc12 [Allopurinol] | 0 | 0 | 0 | 0 | 0 | 0 | 0 | 0 | 0 | 0 | 0 | 0 | 1.3 | 0 | 0 | 0
C[C@@H](Oc1ccc2[nH]nc(/C=C/c3cnn(CCO)c3)c2c1)c1c(Cl)cncc1Cl | 6.3 | 4.2 | 3.9 | 3.1 | 1.8 | 6 | 3.3 | 2.4 | 0 | 4.1 | 3.5 | 1.7 | 1 | 6.8 | 2.4 | 0.6
Cc1cnc(-c2ccccc2C(C)C)nc1NCc1ccc(-n2ccnn2)cc1 [ML323] | 0.1 | 3.1 | 0.2 | 0.9 | 0 | 0 | 0 | 0 | 0 | 0 | 0.3 | 0.8 | 0.6 | 1.7 | 0.6 | 0.9
C[C@@H]1CN(Cc2ccc(F)cc2)[C@@H](C)CN1C(=O)c1cc2c(C(=O)C(=O)N(C)C)cn(C)c2cc1Cl [Talmapimod] | 0 | 0 | 0 | 0 | 0 | 0 | 0 | 0.2 | 0 | 0 | 0 | 0 | 0 | 0 | 0 | 1.2
CCNC(=O)CCC/C=C\C[C@@H]1[C@@H](/C=C/[C@@H](O)CCc2ccccc2)[C@H](O)C[C@@H]1O [Bimatoprost] | 0 | 0 | 0 | 0 | 0 | 0 | 0 | 0 | 0 | 0 | 0 | 0 | 0 | 0 | 0 | 0
